From patent US10766884B2 (Pfizer Inc., priority 2018, dated 2020) come the findings set out here.

Assay [1] concerns the target CDK4/Cyclin D1 (Homo sapiens (Human), UniProt P11802). The assay is described as follows: CDK4/Cyclin D1 mobility shift assay. The settings on record: activated CDK4/Cyclin D1, 3.5 mM ATP, Morrison fit; read-out: CDK4D1 Ki. The format is biochemical.
Assay [2] has as its target CDK6/Cyclin D3 (Homo sapiens (Human), UniProt Q00534). In words: CDK6/Cyclin D3 mobility shift assay. Format: biochemical. The settings on record: activated CDK6/Cyclin D3, 3.5 mM ATP, Morrison fit; read-out: CDK6_D3 Ki.
The target of assay [3] is CDK4 (Homo sapiens (Human), UniProt P11802). In words: Phospho-Serine 795 Rb ELISA assay in JEKO-1 cells. Format: cell-based. To be noted: overnight treatment, phospho-Rb S795, read-out: CDK4 pRB S795 ELISA JEKO-1 cells IC50. (An ELISA detects its analyte on a solid surface through an enzyme-linked reagent.)
CDK4, sequence (P11802 2-303): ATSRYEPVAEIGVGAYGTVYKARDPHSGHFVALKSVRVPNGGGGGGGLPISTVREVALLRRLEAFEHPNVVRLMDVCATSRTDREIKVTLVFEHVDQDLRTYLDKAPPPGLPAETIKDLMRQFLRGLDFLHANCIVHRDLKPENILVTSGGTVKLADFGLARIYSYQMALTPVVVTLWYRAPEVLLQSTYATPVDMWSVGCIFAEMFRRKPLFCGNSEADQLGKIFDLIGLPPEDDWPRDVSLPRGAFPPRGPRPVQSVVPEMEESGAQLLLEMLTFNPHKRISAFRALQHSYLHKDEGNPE
CDK4, sequence (P24385 whole entry partner): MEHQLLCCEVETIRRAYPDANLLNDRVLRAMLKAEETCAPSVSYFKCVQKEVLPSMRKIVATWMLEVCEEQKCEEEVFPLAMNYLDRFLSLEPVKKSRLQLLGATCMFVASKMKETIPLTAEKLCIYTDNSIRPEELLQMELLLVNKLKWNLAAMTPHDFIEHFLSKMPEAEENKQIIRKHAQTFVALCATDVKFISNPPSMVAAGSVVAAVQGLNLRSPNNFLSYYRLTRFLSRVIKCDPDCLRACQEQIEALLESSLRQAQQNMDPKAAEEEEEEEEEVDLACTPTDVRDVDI
Assay [4] deals with CDK6 (Homo sapiens (Human), UniProt Q00534). The assay is described as follows: Phospho-Serine 795 Rb ELISA assay in MV4-11 cells. The format is cell-based. To be noted: overnight treatment, phospho-Rb S795, read-out: CDK6 pRB S795 ELISA MV4-11 cells IC50.
CDK6, sequence (Q00534 whole entry): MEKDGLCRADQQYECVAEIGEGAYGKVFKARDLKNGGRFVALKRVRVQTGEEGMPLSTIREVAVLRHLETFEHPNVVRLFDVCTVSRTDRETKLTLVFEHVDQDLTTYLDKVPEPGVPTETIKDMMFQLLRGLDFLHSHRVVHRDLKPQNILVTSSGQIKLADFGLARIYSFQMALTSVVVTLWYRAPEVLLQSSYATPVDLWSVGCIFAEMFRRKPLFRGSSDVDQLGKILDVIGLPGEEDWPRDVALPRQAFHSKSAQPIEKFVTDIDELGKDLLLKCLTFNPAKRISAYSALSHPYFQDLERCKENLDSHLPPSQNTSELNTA
CDK6, sequence (P30281 whole entry partner): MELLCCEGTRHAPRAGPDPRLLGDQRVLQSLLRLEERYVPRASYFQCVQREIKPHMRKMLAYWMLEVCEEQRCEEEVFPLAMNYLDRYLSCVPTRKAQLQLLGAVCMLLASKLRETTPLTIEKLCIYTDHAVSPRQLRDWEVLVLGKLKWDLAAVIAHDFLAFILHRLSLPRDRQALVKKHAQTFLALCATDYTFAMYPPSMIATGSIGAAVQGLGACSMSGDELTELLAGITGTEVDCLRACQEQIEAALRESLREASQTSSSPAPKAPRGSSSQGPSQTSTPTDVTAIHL

CDK6/Cyclin D3, sequence (Q00534 whole entry): as the sequence (Q00534 whole entry) above
CDK6/Cyclin D3, sequence (P30281 whole entry partner): as the sequence (P30281 whole entry partner) above
CDK4/Cyclin D1, sequence (P11802 whole entry): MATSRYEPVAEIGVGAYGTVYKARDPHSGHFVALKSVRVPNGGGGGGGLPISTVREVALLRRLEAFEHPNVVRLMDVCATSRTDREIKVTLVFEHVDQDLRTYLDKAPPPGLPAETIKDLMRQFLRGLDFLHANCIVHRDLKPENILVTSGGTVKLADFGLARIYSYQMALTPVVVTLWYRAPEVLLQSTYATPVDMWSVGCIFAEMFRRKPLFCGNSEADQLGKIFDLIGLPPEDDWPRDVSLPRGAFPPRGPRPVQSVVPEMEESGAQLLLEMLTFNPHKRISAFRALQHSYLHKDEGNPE
CDK4/Cyclin D1, sequence (P24385 whole entry partner): as the sequence (P24385 whole entry partner) above

As for `Cc1nc2ccc(-c3nc(N[C@@H]4CCN(S(C)(=O)=O)C[C@H]4O)ncc3F)cc2n1C(C)(C)C` [Example A78, (3R,4R)-4-{[4-(1-tert-butyl-2-methyl-1H-benzimidazol-6-yl)-5-fluoropyrimidin-2-yl]amino}-1-(methanesulfonyl)piperidin-3-ol], the Ki (commonly a measure of affinity in units of concentration, obtained from inhibition or displacement) in assay [1] is 0.1 nM; in assay [2], 1.8 nM. Also, the values for the IC50 in assay [3] and in assay [4] were 26.4 nM and 73.9 nM, respectively.

As for `CNCC(=O)N1CC[C@@H](Nc2ncc(F)c(-c3cc(F)c4nc(C)n(C(C)C)c4c3)n2)[C@H](O)C1` [Example F23, 1-[(3R,4R)-4-({5-fluoro-4-[4-fluoro-2-methyl-1-(propan-2-yl)-1H-benzimidazol-6-yl]pyrimidin-2-yl}amino)-3-hydroxypiperidin-1-yl]-2-(methylamino)ethan-1-one], the results for the Ki in assay [1] and in assay [2] were 1 nM and 11 nM, respectively. In addition, the half-maximal inhibitory concentration (IC50) (as a rule, the midpoint of a concentration-inhibition curve) in assay [3] was 692 nM; in assay [4], 1320 nM.

For the compound `Cc1nc2c(F)cc(-c3nc(N[C@@H]4CCN(C(=O)CO)C[C@H]4O)ncc3F)cc2n1C(C)C` [Example F17, 1-[(3R,4R)-4-({5-fluoro-4-[4-fluoro-2-methyl-1-(propan-2-yl)-1H-benzimidazol-6-yl]pyrimidin-2-yl}amino)-3-hydroxypiperidin-1-yl]-2-hydroxyethan-1-one], the Ki is 0.5 nM in assay [1] and 8.3 nM in assay [2]. In addition, the results for the IC50 in assay [3] and in assay [4] were 83.2 nM and 127 nM, respectively.

On to `CC1(C)OCCn2nc3c(F)cc(-c4nc(N[C@@H]5CCOC[C@H]5O)ncc4Cl)cc3c21` [Example A27], for which the Ki was 1 nM in assay [1] and 15.7 nM in assay [2]. For the same compound, the IC50 in assay [3] was found to be 75.6 nM; in assay [4] it was 269 nM.

As to `Cc1nc2c(F)cc(-c3nc(N[C@@H]4CCN(S(C)(=O)=O)C[C@H]4O)ncc3F)cc2n1C(C)C` [Example A02], the Ki in assay [1] was found to be 0.1 nM; in assay [2], 2.5 nM. Further, the IC50 was found to be 88.6 nM in assay [3] and 163 nM in assay [4].

As to `Cc1nc2ccc(-c3cc(N[C@@H]4CCOC[C@H]4O)ncc3Cl)nc2n1C(C)C` [Example D05, 1,5-anhydro-3-({5-chloro-4-[2-methyl-3-(propan-2-yl)-3H-imidazo[4,5-b]pyridin-5-yl]pyridin-2-yl}amino)-2,3-dideoxy-D-threo-pentitol], the Ki came out at 2.2 nM in assay [1] and 39.4 nM in assay [2]. Besides, the IC50 in assay [3] worked out at 85.7 nM; in assay [4] it was 258 nM.

Take `CC(C)n1c(C2CCO2)nc2c(F)cc(-c3nc(N[C@@H]4CCN(S(C)(=O)=O)C[C@H]4O)ncc3Cl)cc21` (single isomer, unassigned) [Example A31]: the Ki in assay [1] turned out to be 0.5 nM; in assay [2], 7.1 nM. Further, the IC50 came out at 23.5 nM in assay [3] and 87 nM in assay [4].

For `Cc1nc2cc(F)c(-c3nc(N[C@@H]4CCN(S(C)(=O)=O)C[C@H]4O)ncc3Cl)cc2n1C(C)C` [Example A06], the Ki turned out to be 1.4 nM in assay [1] and 17.5 nM in assay [2]. In addition, the values for the IC50 in assay [3] and in assay [4] were 87.4 nM and 192 nM, respectively.

In the case of `CC(C)n1c(CC(N)C(F)F)nc2c(F)cc(-c3nc(N[C@@H]4CCOC[C@H]4O)ncc3Cl)cc21` (single isomer, unassigned) [Example A57, 3-({4-[2-(2-amino-3,3-difluoropropyl)-4-fluoro-1-(propan-2-yl)-1H-benzimidazol-6-yl]-5-chloropyrimidin-2-yl}amino)-1,5-anhydro-2,3-dideoxy-D-threo-pentitol], the results for the Ki in assay [1] and in assay [2] were 0.4 nM and 19.1 nM, respectively. Also, the IC50 turned out to be 49 nM in assay [3] and 269 nM in assay [4].

For the compound `CC(C)n1cnc2c(F)cc(-c3nc(N[C@@H]4CCN(C(=O)C5(N)CC5)C[C@H]4O)ncc3Cl)cc21` [Example F28, (1-aminocyclopropyl)[(3R,4R)-4-({5-chloro-4-[4-fluoro-1-(propan-2-yl)-1H-benzimidazol-6-yl]pyrimidin-2-yl}amino)-3-hydroxypiperidin-1-yl]methanone], the Ki in assay [1] turned out to be 2.2 nM; in assay [2], 22.3 nM. In addition, the IC50 in assay [3] was 191 nM; in assay [4], 745 nM.

With `Cc1nc2c(F)cc(-c3ccnc(N[C@@H]4CCN(S(C)(=O)=O)C[C@H]4O)n3)cc2n1C(C)C` [Example A04], the Ki in assay [1] was 0.6 nM; in assay [2] it was 11.4 nM. Moreover, the IC50 in assay [3] stood at 330 nM; in assay [4], 289 nM.

For `Cc1nc2c(F)cc(-c3nc(N[C@@H]4CCN(S(C)(=O)=O)C[C@H]4O)ncc3Cl)cc2n1C1COC1` [Example A89, (3R,4R)-4-({5-chloro-4-[4-fluoro-2-methyl-1-(oxetan-3-yl)-1H-benzimidazol-6-yl]pyrimidin-2-yl}amino)-1-(methanesulfonyl)piperidin-3-ol], the inhibitory constant (Ki) in assay [1] is 0.5 nM; in assay [2], 12 nM. In addition, the IC50 was 118 nM in assay [3] and 570 nM in assay [4].

As to `Cn1nc2ccc(-c3nc(N[C@@H]4CCN(S(C)(=O)=O)C[C@H]4O)ncc3Cl)cc2c1C(C)(C)O` [Example A29], the Ki in assay [1] worked out at 0.6 nM; in assay [2], 5.1 nM. Besides, the IC50 in assay [3] was 68.6 nM; in assay [4], 95.7 nM.

For `Cc1nc2c(F)cc(-c3nc(N[C@@H]4CCN(S(C)(=O)=O)C[C@H]4O)ncc3C#N)cc2n1C(C)C` [Example B01, 4-[4-fluoro-2-methyl-1-(propan-2-yl)-1H-benzimidazol-6-yl]-2-{[(3R,4R)-3-hydroxy-1-(methanesulfonyl)piperidin-4-yl]amino}pyrimidine-5-carbonitrile], the inhibition constant Ki in assay [1] worked out at 0.1 nM; in assay [2], 1.5 nM. Also, the IC50 in assay [3] amounted to 65.6 nM; in assay [4], 129 nM.

As to `CC(C)n1c(CNC2CC2)nc2c(F)cc(-c3nc(N[C@@H]4CCOC[C@H]4O)ncc3Cl)cc21` [Example H11, 1,5-anhydro-3-[(5-chloro-4-{2-[(cyclopropylamino)methyl]-4-fluoro-1-(propan-2-yl)-1H-benzimidazol-6-yl}pyrimidin-2-yl)amino]-2,3-dideoxy-D-threo-pentitol], the figures for the Ki in assay [1] and in assay [2] were 0.7 nM and 22.1 nM, respectively. Also, the IC50 was 43.4 nM in assay [3] and 295 nM in assay [4].

Consider `CC(C)n1c(C(C)(C)O)nc2c(F)cc(-c3nc(N[C@@H]4CCOC[C@H]4O)ncc3F)cc21` [Example A68, 1,5-anhydro-2,3-dideoxy-3-({5-fluoro-4-[4-fluoro-2-(2-hydroxpropan-2-yl)-1-(propan-2-yl)-1H-benzimidazol-6-yl]pyrimidin-2-yl}amino)-D-threo-pentitol], for which the Ki in assay [1] came out at 0.7 nM; in assay [2] it was 14.3 nM. The IC50 in assay [3] worked out at 48.7 nM; in assay [4], 235 nM.

On to `CC(C)n1c(CN2C[C@@](C)(O)[C@@H]2C)nc2c(F)cc(-c3nc(N[C@@H]4CCOC[C@H]4O)ncc3Cl)cc21` [Example H04, 1,5-anhydro-3-({5-chloro-4-[4-fluoro-2-{[(2S,3R)-3-hydroxy-2,3-dimethylazetidin-1-yl]methyl}-1-(propan-2-yl)-1H-benzimidazol-6-yl]pyrimidin-2-yl}amino)-2,3-dideoxy-D-threo-pentitol], for which the Ki in assay [1] amounted to 0.8 nM; in assay [2], 38.2 nM. For the same compound, the IC50 in assay [3] is 63.4 nM; in assay [4], 221 nM.

With `C[C@@H](O)c1nc2c(F)cc(-c3nc(N[C@@H]4CCOC[C@H]4O)ncc3Cl)cc2n1C(C)(C)C` [Example A60, 1,5-anhydro-3-[(4-{1-tert-butyl-4-fluoro-2-[(1R)-1-hydroxyethyl]-1H-benzimidazol-6-yl}-5-chloropyrimidin-2-yl)amino]-2,3-dideoxy-D-threo-pentitol], the Ki in assay [1] was determined as 1.6 nM; in assay [2] it was 33.6 nM. Also, the figures for the IC50 in assay [3] and in assay [4] were 65.2 nM and 190 nM, respectively.

Take `C[C@@H](O)c1nc2c(F)cc(-c3nc(N[C@@H]4CCN(S(C)(=O)=O)C[C@H]4O)ncc3Cl)cc2n1C(C)(C)C` [Example A62, (3R,4R)-4-[(4-{1-tert-butyl-4-fluoro-2-[(1R)-1-hydroxyethyl]-1H-benzimidazol-6-yl}-5-chloropyrimidin-2-yl)amino]-1-(methanesulfonyl)piperidin-3-ol]: the inhibitory constant (Ki) in assay [1] was found to be 0.5 nM; in assay [2] it was 8 nM. In addition, the IC50 in assay [3] stood at 27.5 nM; in assay [4] it was 66.6 nM.

Turning to `Cc1nc2c(F)cc(-c3nc(N[C@@H]4CCN(S(C)(=O)=O)C[C@H]4O)ncc3Cl)cc2n1[C@H](C)CN` [Example A38, (3R,4R)-4-[(4-{1-[(2R)-1-aminopropan-2-yl]-4-fluoro-2-methyl-1H-benzimidazol-6-yl}-5-chloropyrimidin-2-yl)amino]-1-(methanesulfonyl)piperidin-3-ol], the Ki in assay [1] is 0.5 nM; in assay [2], 10.2 nM. Also, the figures for the IC50 in assay [3] and in assay [4] were 456 nM and 598 nM, respectively.

Regarding `CC1(C)OCCn2nc3c(F)cc(-c4nc(N[C@@H]5CCOC[C@H]5O)ncc4F)cc3c21` [Example A80, 1,5-anhydro-2,3-dideoxy-3-{[5-fluoro-4-(7-fluoro-1,1-dimethyl-3,4-dihydro-1H-[1,4]oxazino[4,3-b]indazol-9-yl)pyrimidin-2-yl]amino}-D-threo-pentitol], the figures for the Ki in assay [1] and in assay [2] were 0.5 nM and 14.7 nM, respectively. In addition, the IC50 in assay [3] was 72.9 nM; in assay [4], 217 nM.

Turning to `CC(C)n1c(CN)nc2c(F)cc(-c3nc(N[C@@H]4CCOC[C@H]4O)ncc3Cl)cc21` [Example A54, 3-({4-[2-(aminomethyl)-4-fluoro-1-(propan-2-yl)-1H-benzimidazol-6-yl]-5-chloropyrimidin-2-yl}amino)-1,5-anhydro-2,3-dideoxy-D-threo-pentitol], the Ki amounted to 2.3 nM in assay [1] and 37.5 nM in assay [2]. For the same compound, the IC50 in assay [3] was found to be 173 nM; in assay [4], 605 nM.
